Measurements from patent US20220331247A1, “Polymeric micelle, methods of production and uses thereof” (Association for the Advancement of Tissue Engineering and …, priority 2019, published 2022).

Assays:
IL-6 = IL-6 quantified in the medium, co-culture system; assay type: cell-based, human; details: untreated maximum about 1.2 μg/mL
Description: (§1) In an embodiment, the biological effects of dexamethasone (Dex) in monocultures and co-culture of hACs and THP-1 were analysed. To compare the biological effects of free Dex and the polymeric micelles encapsulating Dex, monoculture and co-culture systems of hACs and stimulated M1 macrophages were used. Three different conditions were tested: (i) no treatment (Ctr), (ii) treatment with micelles encapsulating Dex (Mic+Dex), and (iii) treatment with free Dex (Dex). The concentration of Dex was […], and in the co-culture system, 50 mU of GR was added.
TNF-α and IL-6 cytokines (FIGS. 5C and D, respectively) were quantified in the medium. […] This may be explained due to the controlled release of Dex from the polymeric micelles over the time. With regard to IL-6, the establishment of the co-culture system increased IL-6 amount to a maximum of about 1.2 μg/mL. In this case, both the polymeric micelles with encapsulated Dex and free Dex were able to effectively reduce the amount of IL-6 in the medium to about 0.1 μg/mL.
(§2) The samples were analyzed for (i) cell viability, (ii) cell proliferation, (C) TNF-α concentration, and (D) IL-6 concentration. The alphabet “a” denotes significant difference compared to the hACs Ctr, “b” denotes significant difference compared to the THP-1 Ctr, and “c” denotes significant difference as compared to the co-culture Ctr where p<0.01.

[1] = test system: hACs cultured in monolayer; assay: Biological effects of Dex treatments in hACs monoculture; assay type: cell-based, human; details: Dex 100 WI
Description: as §1, §2

C[C@@H]1C[C@H]2[C@@H]3CCC4=CC(=O)C=C[C@]4(C)[C@@]3(F)[C@@H](O)C[C@]2(C)[C@@]1(O)C(=O)CO [Dex, dexamethasone]
amount of IL-6 in the medium after treatment (IL-6): about 0.1 μg/mL | hACs' viability and proliferation vs Ctr [1]: significantly reduced
